Laboratory results as given in ChEMBL document CHEMBL3885861, “Open TG-GATES”.

Organism: Rattus norvegicus
Assay: Open TG-GATES - Regimen: Single
Type: toxicity, organism-based, Sprague-Dawley
Set-up: regimen Single, gender Male, age 6 weeks
Conditions: in vivo, po, 0 mg/kg, route gavage, dose level Control; for APTT / Bas / Eos / Fbg / Hb / Ht / Lym / MCH / MCHC / MCV / Mono / Neu / PT / Plat / RBC / Ret / WBC: tissue Blood; for KIDNEY_L / KIDNEY_R / KIDNEY_TOTAL: tissue Kidney; for LIVER: tissue Liver; for A/G / ALP / ALT / AST / BUN / CRE / Ca / Cl / DBIL / GLC / IP / K / LDH / Na / PL / RALB / TBIL / TC / TG / TP / gamma-GTP: tissue Plasma

C=CCO [ALLYL ALCOHOL]
TERMINAL_BW (3 h): 221.5 g | APTT (3 h): 19.5 s | Bas (3 h): 0% | Eos (3 h): 1% | Fbg (3 h): 226.4 mg/dL | Hb (3 h): 13.4 g/dL | Ht (3 h): 39.2% | Lym (3 h): 73.8% | MCH (3 h): 20.8 pg | MCHC (3 h): 34.3% | MCV (3 h): 60.8 fL | Mono (3 h): 3% | Neu (3 h): 21.8% | PT (3 h): 12.2 s | Plat (3 h): 135.4 x10_4/uL | RBC (3 h): 645 x10_4/ul | Ret (3 h): 6.7% | WBC (3 h): 82.7 x10_2/uL | KIDNEY_L (3 h): 0.9 g | KIDNEY_R (3 h): 0.9 g | KIDNEY_TOTAL (3 h): 1.8 g | LIVER (3 h): 9.9 g | A/G (3 h): 1.4 | ALP (3 h): 946 IU/L | ALT (3 h): 41.2 IU/L | AST (3 h): 72.2 IU/L | BUN (3 h): 11.2 mg/dL | CRE (3 h): 0.4 mg/dL | Ca (3 h): 10.8 mg/dL | Cl (3 h): 102 meq/L | DBIL (3 h): 0.3 mg/dL | GLC (3 h): 192.4 mg/dL | IP (3 h): 9.1 mg/dL | K (3 h): 3.9 meq/L | LDH (3 h): 190.8 IU/L | Na (3 h): 140 meq/L | PL (3 h): 176.2 mg/dL | RALB (3 h): 3.2 g/dL | TBIL (3 h): 0.4 mg/dL | TC (3 h): 83.8 mg/dL | TG (3 h): 186.2 mg/dL | TP (3 h): 5.6 g/dL | gamma-GTP (3 h): 1.2 IU/L | TERMINAL_BW (6 h): 221.2 g | APTT (6 h): 19.3 s | Bas (6 h): 0% | Eos (6 h): 1% | Fbg (6 h): 235.8 mg/dL | Hb (6 h): 13.4 g/dL | Ht (6 h): 38.9% | Lym (6 h): 73.2% | MCH (6 h): 21.4 pg | MCHC (6 h): 34.5% | MCV (6 h): 62.1 fL | Mono (6 h): 4.2% | Neu (6 h): 21.6% | PT (6 h): 12.2 s | Plat (6 h): 124.2 x10_4/uL | RBC (6 h): 626.2 x10_4/ul | Ret (6 h): 7.3% | WBC (6 h): 115.2 x10_2/uL | KIDNEY_L (6 h): 0.9 g | KIDNEY_R (6 h): 1 g | KIDNEY_TOTAL (6 h): 1.9 g | LIVER (6 h): 9.6 g | A/G (6 h): 1.6 | ALP (6 h): 1049.2 IU/L | ALT (6 h): 33.2 IU/L | AST (6 h): 62.6 IU/L | BUN (6 h): 10 mg/dL | CRE (6 h): 0.4 mg/dL | Ca (6 h): 10.5 mg/dL | Cl (6 h): 102.8 meq/L | DBIL (6 h): 0.086 mg/dL | GLC (6 h): 199.6 mg/dL | IP (6 h): 8.9 mg/dL | K (6 h): 3.8 meq/L | LDH (6 h): 195.6 IU/L | Na (6 h): 140.8 meq/L | PL (6 h): 146 mg/dL | RALB (6 h): 3.4 g/dL | TBIL (6 h): 0.1 mg/dL | TC (6 h): 74.8 mg/dL | TG (6 h): 66.2 mg/dL | TP (6 h): 5.5 g/dL | gamma-GTP (6 h): 1 IU/L | TERMINAL_BW (9 h): 217.9 g | APTT (9 h): 18.7 s | Bas (9 h): 0% | Eos (9 h): 1% | Fbg (9 h): 219.6 mg/dL | Hb (9 h): 13.2 g/dL | Ht (9 h): 38.5% | Lym (9 h): 74.8% | MCH (9 h): 20.7 pg | MCHC (9 h): 34.4% | MCV (9 h): 60.2 fL | Mono (9 h): 3.2% | Neu (9 h): 20.4% | PT (9 h): 12.5 s | Plat (9 h): 132.1 x10_4/uL | RBC (9 h): 639.8 x10_4/ul | Ret (9 h): 6.9% | WBC (9 h): 99.3 x10_2/uL | KIDNEY_L (9 h): 1 g | KIDNEY_R (9 h): 0.9 g | KIDNEY_TOTAL (9 h): 1.9 g | LIVER (9 h): 9.1 g | A/G (9 h): 1.5 | ALP (9 h): 880.4 IU/L | ALT (9 h): 28.2 IU/L | AST (9 h): 62.2 IU/L | BUN (9 h): 12 mg/dL | CRE (9 h): 0.4 mg/dL | Ca (9 h): 10.4 mg/dL | Cl (9 h): 101.6 meq/L | DBIL (9 h): 0.08 mg/dL | GLC (9 h): 208.2 mg/dL | IP (9 h): 10.7 mg/dL | K (9 h): 3.6 meq/L | LDH (9 h): 158.4 IU/L | Na (9 h): 141 meq/L | PL (9 h): 148.4 mg/dL | RALB (9 h): 3.3 g/dL | TBIL (9 h): 0.1 mg/dL | TC (9 h): 72.8 mg/dL | TG (9 h): 81 mg/dL | TP (9 h): 5.6 g/dL | gamma-GTP (9 h): 1 IU/L | TERMINAL_BW (24 h): 231.2 g | APTT (24 h): 19.4 s | Bas (24 h): 0% | Eos (24 h): 1% | Fbg (24 h): 235.8 mg/dL | Hb (24 h): 13.1 g/dL | Ht (24 h): 38.5% | Lym (24 h): 78.2% | MCH (24 h): 20.5 pg | MCHC (24 h): 34.1% | MCV (24 h): 60.3 fL | Mono (24 h): 3% | Neu (24 h): 17.2% | PT (24 h): 12.2 s | Plat (24 h): 140 x10_4/uL | RBC (24 h): 640.6 x10_4/ul | Ret (24 h): 6.2% | WBC (24 h): 99.8 x10_2/uL | KIDNEY_L (24 h): 0.9 g | KIDNEY_R (24 h): 1 g | KIDNEY_TOTAL (24 h): 1.9 g | LIVER (24 h): 10.8 g | A/G (24 h): 1.5 | ALP (24 h): 963.4 IU/L | ALT (24 h): 35.8 IU/L | AST (24 h): 63.2 IU/L | BUN (24 h): 15.8 mg/dL | CRE (24 h): 0.4 mg/dL | Ca (24 h): 10.8 mg/dL | Cl (24 h): 102 meq/L | DBIL (24 h): 0.098 mg/dL | GLC (24 h): 196.4 mg/dL | IP (24 h): 7.1 mg/dL | K (24 h): 4 meq/L | LDH (24 h): 186.4 IU/L | Na (24 h): 140.8 meq/L | PL (24 h): 147.6 mg/dL | RALB (24 h): 3.3 g/dL | TBIL (24 h): 0.2 mg/dL | TC (24 h): 74.2 mg/dL | TG (24 h): 116 mg/dL | TP (24 h): 5.6 g/dL | gamma-GTP (24 h): 0.8 IU/L
